This note sets out measurements from patent US20260092054A1, “FUSED RING COMPOUND AND PHARMACEUTICAL CONTAINING SAME” (KAKEN PHARMACEUTICAL CO., LTD., priority 2022, published 2026).

Molecules are shown by their SMILES.

One assay concerns the target T1, human STAT6/pIL-4Rα (Homo sapiens, UniProt P42226).
T1 construct: histidine tag
T1 sequence (P42226 123-658): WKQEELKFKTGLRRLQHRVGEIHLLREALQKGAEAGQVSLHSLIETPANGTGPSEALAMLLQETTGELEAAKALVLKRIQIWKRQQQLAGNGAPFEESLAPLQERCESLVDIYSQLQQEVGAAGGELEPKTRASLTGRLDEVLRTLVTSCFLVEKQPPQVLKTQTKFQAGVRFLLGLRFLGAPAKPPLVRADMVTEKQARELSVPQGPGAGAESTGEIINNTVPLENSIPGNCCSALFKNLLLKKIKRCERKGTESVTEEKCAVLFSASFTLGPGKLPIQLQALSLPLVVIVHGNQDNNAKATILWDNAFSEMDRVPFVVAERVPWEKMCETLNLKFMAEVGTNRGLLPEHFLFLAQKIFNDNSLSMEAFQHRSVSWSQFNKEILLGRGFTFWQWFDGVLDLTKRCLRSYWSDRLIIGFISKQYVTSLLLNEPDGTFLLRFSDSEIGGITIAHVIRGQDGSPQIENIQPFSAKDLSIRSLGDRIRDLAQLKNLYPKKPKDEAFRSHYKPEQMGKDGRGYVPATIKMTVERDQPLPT
The assay can be described thus: Binding inhibitory activity between human STAT6/pIL-4Rα by fluorescence polarization method. The settings on record: rhSTAT6 (123-658) / FAM-pIL-4Rα peptide. The essentials:
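His-tagged human STAT6 (residues 123–658, E. coli-expressed) was preincubated with compound for 30 min at RT in the dark, in buffer e.g. 50 mM NaCl, 10 mM HEPES pH 7.0, 1 mM DTT, 1 mM EDTA, 0.01% NP-40. FAM-pIL-4Rα peptide was then added for 30 min. Fluorescence polarisation was read at 485/535 nm, with IC50 interpolated linearly between two points flanking 50%.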
(In general: Polarisation of emitted light reports the rotation of a fluorescent probe.)

The next assay relates to human STAT6. Description: Human STAT6 dependent reporter activity (IL-4 stimulated STAT6 reporter assay using STAT6-HEK293 cells). It is filed as cell-based. Conditions: Homo sapiens, IL-4 stimulation, luciferase activity, read-out: Inhibition rate (%); for inhibition at 0.1 µM: compound 0.1 μmol/L; for inhibition at 1 µM: compound 1 μmol/L. On the technique in general: In a reporter assay the amount or activity of a reporter protein is the signal.

Regarding `COCCn1c(-c2ccc(-n3c(C)nn(C)c3=O)cc2)cc2cc(C(F)(F)F)cc(C(=O)Nc3ccccn3)c21` [Ex. 69], at human STAT6/pIL-4Rα, the IC50 came to 290 nM. Besides, in the assay with human STAT6, the inhibition at 0.1 µM was found to be 61% and the inhibition at 1 µM is 100%.
The corresponding values for `COCCn1c(-c2ccc(-n3c(C)nn(C)c3=O)cc2)cc2cc(C(F)(F)F)cc(C(=O)Nc3cccnc3OC)c21` [Ex. 70] are 760 nM, -6% and 45%.
With `CCn1c(-c2ccc(-n3c(C)nn(C)c3=O)cc2F)cc2cc(C(F)(F)F)cc(C(=O)Nc3ccc(F)c(C(N)=O)c3)c21` [Ex. 72], the IC50 at human STAT6/pIL-4Rα stood at 340 nM. Also, in the assay with human STAT6, the inhibition at 0.1 µM stood at 65% and the inhibition at 1 µM worked out at 97%.
In the case of `COCCn1c(-c2ccc(-n3c(C)nn(C)c3=O)cc2)cc2cc(C(F)(F)F)cc(C(=O)Nc3ccc(C)nc3)c21` [Ex. 73], on human STAT6/pIL-4Rα, the IC50 was determined as 370 nM. For the same molecule, in the assay on human STAT6, the inhibition at 0.1 µM came to 72% and the inhibition at 1 µM stood at 100%.
Turning to `CCn1c(-c2ccc(-n3c(C)nn(C)c3=O)cc2)cc2nc(C(F)(F)F)cc(C(=O)Nc3ccc(F)c(C(N)=O)c3)c21` [Ex. 74], the IC50 on human STAT6/pIL-4Rα was found to be 480 nM. For the same molecule, in the assay on human STAT6, the inhibition at 0.1 µM worked out at 21% and the inhibition at 1 µM worked out at 91%.
Turning to `CCn1c(-c2ccc(-n3c(C)nn(C)c3=O)cc2)cc2nc(C(F)(F)F)cc(C(=O)Nc3cccc(C(N)=O)c3F)c21` [Ex. 75], the IC50 on human STAT6/pIL-4Rα was 360 nM. In the assay with human STAT6, the inhibition at 0.1 µM is 36% and the inhibition at 1 µM turned out to be 93%.
Take `CCn1c(-c2ccc(-n3c(C)nn(C)c3=O)cc2)cc2c(F)ccc(C(=O)Nc3ccc(F)c(C(N)=O)c3)c21` [Ex. 76]: the IC50 on human STAT6/pIL-4Rα was determined as 360 nM. Moreover, in the assay on human STAT6, the inhibition at 0.1 µM was found to be 31% and the inhibition at 1 µM was 94%.
In turn, `CCn1c(-c2ccc(-n3c(C)nn(C)c3=O)cc2)cc2c(F)ccc(C(=O)Nc3cccc(C(N)=O)c3F)c21` [Ex. 77] registered an IC50 at human STAT6/pIL-4Rα of 590 nM. Further, in the assay with human STAT6, the inhibition at 0.1 µM turned out to be 73% and the inhibition at 1 µM was determined as 99%.
The corresponding values for `COCCn1c(-c2ccc(-n3c(C)nn(C)c3=O)cc2)cc2cc(C(F)(F)F)cc(C(=O)Nc3cccc(OC)n3)c21` [Ex. 78] are 340 nM, 89% and 100%.
The corresponding values for `COCCn1c(-c2ccc(-n3c(C)nn(C)c3=O)cc2)cc2cc(C(F)(F)F)cc(C(=O)Nc3ccnn3C)c21` [Ex. 80] are 400 nM, 4% and 61%.
The corresponding values for `CCn1c(-c2ccc(-n3c(C)nn(C)c3=O)cc2)cc2cc(C(F)(F)F)nc(C(=O)Nc3cccc(C(N)=O)c3F)c21` [Ex. 83] are 370 nM, 68% and 98%.
Consider `COCCn1c(-c2ccc(-n3c(C)nn(C)c3=O)cc2)cc2cc(C(F)(F)F)cc(C(=O)Nc3nnc(C)s3)c21` [Ex. 84], for which the IC50 at human STAT6/pIL-4Rα came out at 240 nM. For the same molecule, in the assay with human STAT6, the inhibition at 0.1 µM is 93% and the inhibition at 1 µM is 100%.
The corresponding values for `COCCn1c(-c2ccc(-n3c(C)nn(C)c3=O)cc2)cc2cc(C(F)(F)F)cc(C(=O)Nc3nccs3)c21` [Ex. 85] are 340 nM, 11% and 73%.
The corresponding values for `COCCn1c(-c2ccc(-n3c(C)nn(C)c3=O)cc2)cc2cc(C(F)(F)F)cc(C(=O)Nc3ccnnc3)c21` [Ex. 88] are 420 nM, 9% and 76%.
The corresponding values for `COCCn1c(-c2ccc(-n3c(C)nn(C)c3=O)cc2)cc2cc(C(F)(F)F)nc(C(=O)Nc3ccc(F)c(C(N)=O)c3)c21` [Ex. 90] are 280 nM, 63% and 99%.
In turn, `COCCn1c(-c2ccc(-n3c(C)nn(C)c3=O)cc2)cc2cc(C(F)(F)F)nc(C(=O)Nc3cccc(C(N)=O)c3)c21` [Ex. 91] yielded an IC50 at human STAT6/pIL-4Rα of 250 nM. In addition, in the assay with human STAT6, the inhibition at 0.1 µM is 67% and the inhibition at 1 µM was found to be 99%.
The corresponding values for `Cc1nn(C)c(=O)n1-c1ccc(-c2cc3cc(C(F)(F)F)nc(C(=O)Nc4ccc(F)c(C(N)=O)c4)c3n2C)cc1` [Ex. 92] are 230 nM, 74% and 99%.
The corresponding values for `Cc1nn(C)c(=O)n1-c1ccc(-c2cc3cc(C(F)(F)F)nc(C(=O)Nc4cccc(C(N)=O)c4)c3n2C)cc1` [Ex. 93] are 280 nM, 67% and 96%.
Molecule `Cc1nn(C)c(=O)n1-c1ccc(-c2cc3cc(C(F)(F)F)nc(C(=O)Nc4cccc(C(N)=O)c4F)c3n2C)cc1` [Ex. 94] yielded an IC50 at human STAT6/pIL-4Rα of 310 nM. Moreover, in the assay with human STAT6, the inhibition at 0.1 µM is 79%.
`COCCn1c(-c2ccc(-n3c(C)nn(C)c3=O)cc2)cc2cc(C(F)(F)F)cc(C(=O)Nc3cccc(N)n3)c21` [Ex. 95]: on human STAT6/pIL-4Rα, the IC50 was 280 nM. Also, the inhibition at 0.1 µM in the assay with human STAT6 stood at 74%.
As to `COCCn1c(-c2ccc(-n3c(C)nn(C)c3=O)cc2)cc2cc(C(F)(F)F)nc(C(=O)Nc3cccc(C(N)=O)c3F)c21` [Ex. 97], the IC50 on human STAT6/pIL-4Rα amounted to 290 nM. Also, the inhibition at 0.1 µM in the assay on human STAT6 is 89%.
On to `CCn1c(-c2ccc(-n3c(C)nn(C)c3=O)cc2F)cc2ccnc(C(=O)Nc3cccc(C(N)=O)c3F)c21` [Ex. 98], for which, on human STAT6/pIL-4Rα, the IC50 came to 310 nM. In the assay on human STAT6, the inhibition at 0.1 µM is 60% and the inhibition at 1 µM is 100%.
The corresponding values for `CCn1c(-c2ccc(-n3cnn(C)c3=O)cc2)cc2ccnc(C(=O)Nc3cccc(C(N)=O)c3F)c21` [Ex. 99] are 380 nM, 51% and 95%.
`COCCn1c(-c2ccc(-n3c(C)nn(C)c3=O)cc2)cc2cc(C(F)(F)F)cc(C(=O)Nc3cccc(COC)n3)c21` [Ex. 100] yielded an IC50 on human STAT6/pIL-4Rα of 300 nM. The inhibition at 0.1 µM in the assay with human STAT6 was 85%.
Turning to `CCn1c(-c2ccc(-n3c(C)nn(C)c3=O)cc2)cc2cc(C(F)(F)F)cc(C(=O)Nc3cccc(OC)n3)c21` [Ex. 102], the IC50 at human STAT6/pIL-4Rα is 2820 nM. Besides, in the assay on human STAT6, the inhibition at 1 µM was determined as 60%.
In the case of `Cc1nn(C)c(=O)n1-c1ccc(-c2cc3ccnc(C(=O)Nc4cccc(C(N)=O)c4)c3n2C)cc1` [Ex. 107], the IC50 at human STAT6/pIL-4Rα stood at 290 nM. Besides, the inhibition at 0.1 µM with human STAT6 turned out to be 67%.
`Cc1nn(C)c(=O)n1-c1ccc(-c2cc3ccnc(C(=O)Nc4ccc(F)c(C(N)=O)c4)c3n2C)cc1` [Ex. 108]: the half-maximal inhibitory concentration (IC50) at human STAT6/pIL-4Rα turned out to be 460 nM. Besides, in the assay on human STAT6, the inhibition at 0.1 µM was determined as 52% and the inhibition at 1 µM was 97%.
Turning to `Cc1nn(C)c(=O)n1-c1ccc(-c2cc3ccnc(C(=O)Nc4cccc(C(N)=O)c4F)c3n2C)cc1` [Ex. 109], on human STAT6/pIL-4Rα, the IC50 was determined as 430 nM. In the assay with human STAT6, the inhibition at 0.1 µM came to 62%.
The corresponding values for `CCn1c(-c2ccc(-n3c(C)nn(C)c3=O)cc2)cc2ncnc(C(=O)Nc3ccc(F)c(C(N)=O)c3)c21` [Ex. 110] are 430 nM and 65%.
On human STAT6/pIL-4Rα, `Cc1nn(C)c(=O)n1-c1ccc(-c2cc3ccnc(C(=O)Nc4ccc(F)c(C(N)=O)c4)c3n2CCC(F)F)cc1` [Ex. 111] registered an IC50 of 550 nM. Moreover, in the assay with human STAT6, the inhibition at 0.1 µM was determined as 25% and the inhibition at 1 µM amounted to 80%.
As for `Cc1nn(C)c(=O)n1-c1ccc(-c2cc3ccnc(C(=O)Nc4cccc(C(N)=O)c4F)c3n2CCC(F)F)cc1` [Ex. 112], on human STAT6/pIL-4Rα, the IC50 came out at 400 nM. In addition, in the assay with human STAT6, the inhibition at 0.1 µM is 38% and the inhibition at 1 µM was determined as 93%.
The corresponding values for `Cc1nn(C)c(=O)n1-c1ccc(-c2cc3ccnc(C(=O)Nc4cccc(C(N)=O)c4F)c3n2CCOCC(F)(F)F)cc1` [Ex. 113] are 440 nM, 44% and 96%.
At human STAT6/pIL-4Rα, `Cc1nn(C)c(=O)n1-c1ccc(-c2cc3ccnc(C(=O)Nc4ccc(F)c(C(N)=O)c4)c3n2CCOCC(F)(F)F)cc1` [Ex. 114] gave an IC50 of 330 nM. Also, in the assay with human STAT6, the inhibition at 0.1 µM was determined as 57% and the inhibition at 1 µM stood at 97%.
The corresponding values for `COCCn1c(-c2ccc(-n3c(C)nn(C)c3=O)cc2)cc2cc(C(F)(F)F)cc(C(=O)Nc3cccc(CO)c3)c21` [Ex. 115] are 430 nM, 54% and 95%.
`CCn1c(-c2ccc(-n3c(C)nn(C)c3=O)cc2)cc2cc(C(F)(F)F)cc(C(=O)Nc3cccc(-c4ncc[nH]4)c3)c21` [Ex. 118] had an IC50 at human STAT6/pIL-4Rα of 230 nM. Further, the inhibition at 0.1 µM with human STAT6 came out at 95%.
On human STAT6/pIL-4Rα, `Cc1nn(C)c(=O)n1-c1ccc(-c2cc3cccc(C(=O)Nc4cccc(C(N)=O)c4F)c3n2CC2CC2)cc1` [Ex. 119] gave an IC50 of 380 nM. For the same molecule, the inhibition at 0.1 µM in the assay on human STAT6 worked out at 95%.
The corresponding values for `Cc1nn(C)c(=O)n1-c1ccc(-c2cc3ccnc(C(=O)Nc4cccc(C(N)=O)c4)c3n2CC2CCC2)cc1` [Ex. 120] are 500 nM and 74%.

As a reminder, the IC50 is the point on the concentration scale where inhibition reaches its midpoint. As a reminder, the inhibition is the change of the read-out against control, counted positive when it falls.
